Drawing on patent US11033547B2, “Carboxamide-pyrimidine derivatives as SHP2 antagonists” (Merck Patent GmbH, priority 2019, dated 2021), this text covers IC50 for 24 molecules.

Assay [1] addresses Full length SHP2 protein (Recombinant Human SHP-2) (Homo sapiens, UniProt Q06124). Nature of the assay: SHP2 biochemical assay (DiFMUP substrate, activating peptide IRSI_2pY). As to conditions: DiFMUP substrate, activating peptide IRSI_2pY, 60 min at RT; read-out: SHP-2 Biochemical assay IC50. On the procedure: The inhibition of SHP2 by compounds of the invention was monitored using the surrogate substrate DiFMUP after protein activation by a peptide bearing two appropriately spaced phosphotyrosine. […] The generation of the DiFMU product by activated SHP2 was monitored through Fluorescence measurement with a PerkinElmer Envision reader.
The inhibitor dose response curves were analyzed with Genedata Screener.

For assay [2], the system named is pERK level in KYSE520 cells. The assay can be described thus: p-Erk cellular assay in KYSE520 (Mesoscale). The class given is cell-based. The conditions noted are these: 2 h incubation, read-out: pERK1/2 in KYSE520 IC50. The method, then:
(§1) p-Erk Cellular Assay in MDA-MB-468 and KYSE520:
(§2) The effect of SHP2 inhibitors on pERK level was assessed using phospho-specific antibody using Mesoscale quantification platform. For measuring change in pERK levels using mesoscale, 30,000 cells of MDA MB468 and KYSE520 cells were plated in 96-well tissue culture treated plate in 175 ul volume of media. After an overnight incubation at 37° C., various SHP2 inhibitors were added in different concentration to each well maintaining duplicate wells across plates and incubated with compounds for 2 h at 37° C. followed by a wash with ice cold PBS buffer. The cells were then lysed in lysis buffer and processed and analyzed for p-ERK/ERK as per manufacturer's instructions (Mesoscale discovery, cat No. K15107D-3).

Assay [3] relates to pERK level in MDA-MB-468 cells. The assay can be described thus: p-Erk cellular assay in MDA-MB-468 (Mesoscale). The class given is cell-based. The conditions noted are these: 2 h incubation, read-out: pERK1/2 in MDA-MB-468 IC50. The method, then: as §1, §2

Where two headings read alike, the source gives them in different places.

As for “2-((S)-3-amino-3H-spiro[benzofuran-2,4′-piperidin]-1′-yl)-5-(2,3-dichlorophenyl)-6-methylpyrimidine-4-carboxamide [Compound 122]”, the IC50 amounted to 0.017 µM in assay [1] and 0.048 µM in assay [2]. With `Cc1nc(N2CCC(C)(N)CC2)nc(C(N)=O)c1-c1cccc(Cl)c1Cl` (atropisomer, axis not shown; (M)) [Compound 30, (4M)-2-(4-amino-4-methylpiperidin-1-yl)-5-(2,3-dichlorophenyl)-6-methylpyrimidine-4-carboxamide], the values for the IC50 in assay [3] and in assay [1] were 0.475 µM and 0.11 µM, respectively.

For the molecule `Cc1nc(N[C@@H]2CCC[C@H](N)C2)nc(C(N)=O)c1-c1cccc(Cl)c1Cl` (atropisomer, axis not shown; (M)) [Compound 88, (4M)-2-{[(1R,3S)-3-aminocyclohexyl]amino}-5-(2,3-dichlorophenyl)-6-methylpyrimidine-4-carboxamide], the IC50 in assay [1] amounted to 0.41 µM; in assay [2] (Homo sapiens, KYSE-520, 2 h), 4.25 µM. Turning to `C[C@@H]1OCC2(CCN(c3nc(N)c(-c4cccc(Cl)c4Cl)c(C(N)=O)n3)CC2)[C@@H]1N` (single isomer, unassigned) [Compound 66], the IC50 was 0.503 µM in assay [3] (Homo sapiens, MDA-MB-468, 2 h) and 0.863 µM in assay [2] (Homo sapiens, KYSE-520, 2 h).

Take `Cc1nc(N2CCC3(CC2)CC(F)(F)C[C@H]3N)nc(C(N)=O)c1-c1cccc(Cl)c1Cl` (single isomer, unassigned) [Compound 96]: in assay [2] (Homo sapiens, KYSE-520, 2 h), the IC50 was 0.993 µM. Take `NC[C@@]12CCCC[C@@H]1CN(c1nc(N)c(-c3cccc(Cl)c3Cl)c(C(N)=O)n1)C2` (single isomer, unassigned) [Compound 100]: the IC50 amounted to 0.5 µM in assay [1] and 12.8 µM in assay [2] (Homo sapiens, KYSE-520, 2 h). In the case of `NC[C@]12CCC[C@H]1CN(c1nc(N)c(-c3cccc(Cl)c3Cl)c(C(N)=O)n1)C2` (single isomer, unassigned) [Compound 104], the IC50 was found to be 0.12 µM in assay [1] and 2.25 µM in assay [2] (Homo sapiens, KYSE-520, 2 h).

As to `CC1(N)CCN(c2ncc(-c3cccc(Cl)c3Cl)c(C(N)=O)n2)CC1` [Compound 1, 2-(4-amino-4-methylpiperidin-1-yl)-5-(2,3-dichlorophenyl)pyrimidine-4-carboxamide], the IC50 in assay [3] (Homo sapiens, MDA-MB-468, 2 h) came to 12 µM. Consider `CC1(N)CCN(c2nc(N)c(-c3cccc(Cl)c3)c(C(N)=O)n2)CC1` [Compound 2, 6-Amino-2-(4-amino-4-methyl-piperidin-1-yl)-5-(3-chlorophenyl)-pyrimidine-4-carboxylic Acid Amide], for which the IC50 in assay [3] (Homo sapiens, MDA-MB-468, 2 h) was determined as 3.08 µM; in assay [1], 2.1 µM. Consider `CC1(N)CCN(c2nc(Cl)c(-c3cccc(Cl)c3Cl)c(C(N)=O)n2)CC1` [Compound 16, 2-(4-Amino-4-methyl-piperidin-1-yl)-6-chloro-5-(2,3-dichlorophenyl)-pyrimidine-4-carboxylic Acid Amide], for which the IC50 in assay [3] was found to be 0.516 µM; in assay [2] (Homo sapiens, KYSE-520, 2 h) it was 1.14 µM.

As to `Cc1nc(N2C[C@@H]3CC[C@H](N)[C@@H]3C2)nc(C(N)=O)c1-c1cccc(Cl)c1Cl` [Compound 74, 2-((3aS,4S,6aR)-4-Amino-hexahydro-cyclopenta-[c]pyrrol-2-yl)-5-(2,3-dichloro-phenyl)-6-methyl-pyrimidine-4-carboxylic acid amide], in assay [1], the IC50 is more than 10 µM. As for `Cc1nc(N2C[C@@H]3CC[C@@H](N)[C@@H]3C2)nc(C(N)=O)c1-c1cccc(Cl)c1Cl` [Compound 75, 2-((3aS,4R,6aR)-4-Amino-hexahydro-cyclopenta[c]pyrrol-2-yl)-5-(2,3-dichloro-phenyl)-6-methyl-pyrimidine-4-carboxylic acid amide], the IC50 in assay [1] is 2.1 µM. Take `Cc1nc(N2C[C@@H]3CCC(N)[C@H]3C2)nc(C(N)=O)c1-c1cccc(Cl)c1Cl` (stereo partly drawn) [Compound 76, 2-((3aR,6aR)-4-Amino-hexahydro-cyclopenta-[c]pyrrol-2-yl)-5-(2,3-dichloro-phenyl)-6-methyl-pyrimidine-4-carboxylic acid amide]: the IC50 in assay [1] was 1 µM. Take `Cc1nc(N2C[C@H]3CC[C@H](N)[C@H]3C2)nc(C(N)=O)c1-c1cccc(Cl)c1Cl` [Compound 77, 2-((3aR,4S,6aS)-4-Amino-hexahydro-cyclopenta-[c]pyrrol-2-yl)-5-(2,3-dichloro-phenyl)-6-methyl-pyrimidine-4-carboxylic acid amide]: the IC50 in assay [1] was more than 10 µM. On to `Cc1nc(N2C[C@@H](N)[C@@H](O)C2)nc(C(N)=O)c1-c1cccc(Cl)c1Cl` [Compound 80, 2-((3R,4S)-3-Amino-4-hydroxy-pyrrolidin-1-yl)-5-(2,3-dichloro-phenyl)-6-methyl-pyrimidine-4-carboxylic acid amide], for which, in assay [1], the IC50 amounted to 5.3 µM. On to `Cc1nc(N2CCC(C)(N)CC2)nc(C(N)=O)c1-c1ccc(F)cc1Cl` [Compound 82, 2-(4-Amino-4-methyl-piperidin-1-yl)-5-(2-chloro-4-fluoro-phenyl)-6-methyl-pyrimidine-4-carboxylic acid amide], for which the IC50 in assay [1] was determined as 2 µM. Consider `Cc1nc(N2CCC(C)(N)CC2)nc(C(N)=O)c1-c1cnccc1Cl` [Compound 83, 2-(4-Amino-4-methyl-piperidin-1-yl)-5-(4-chloro-pyridin-3-yl)-6-methyl-pyrimidine-4-carboxylic acid amide], for which the IC50 in assay [1] turned out to be 14 µM. For the molecule `Cc1nc(N2C[C@H](N)[C@@H](O)C2)nc(C(N)=O)c1-c1cccc(Cl)c1Cl` [Compound 84, 2-((3S,4S)-3-Amino-4-hydroxy-pyrrolidin-1-yl)-5-(2,3-dichloro-phenyl)-6-methyl-pyrimidine-4-carboxylic acid amide], in assay [1], the IC50 is 6.3 µM. For the molecule `Cc1nc(N2CCC(C)(N)CC2)nc(C(N)=O)c1-c1ccncc1` [Compound 86, 2-(4-Amino-4-methyl-piperidin-1-yl)-6-methyl-5-pyridin-4-yl-pyrimidine-4-carboxylic acid amide], the IC50 in assay [1] is more than 10 µM. Turning to `CC1(N)CCCN(c2nc(N)c(-c3cccc(Cl)c3Cl)c(C(N)=O)n2)CC1` (stereo not shown) [Compound 91, 6-Amino-2-(4-amino-4-methyl-azepan-1-yl)-5-(2,3-dichloro-phenyl)-pyrimidine-4-carboxylic acid amide], the IC50 in assay [1] is 0.1 µM; in assay [2] (Homo sapiens, KYSE-520, 2 h), 2.6 µM. In the case of `Cc1nc(N[C@H]2CC[C@@H](N)CC2)nc(C(N)=O)c1-c1cccc(Cl)c1Cl` [Compound 93, 2-(4-Amino-cyclohexyl-amino)-5-(2,3-dichloro-phenyl)-6-methyl-pyrimidine-4-carboxylic acid amide], the IC50 in assay [1] came out at 2.3 µM. On to `Cc1nc(N2CCC(C)(N)CC2)nc(C(N)=O)c1-c1cccc(C(F)(F)F)c1Cl` [Compound 111, 2-(4-Amino-4-methyl-piperidin-1-yl)-5-(2-chloro-3-trifluoromethyl-phenyl)-6-methyl-pyrimidine-4-carboxylic acid amide], for which the IC50 was determined as 0.53 µM in assay [1] and 4.7 µM in assay [2] (Homo sapiens, KYSE-520, 2 h). As to `Cc1nc(N2CCC3(CC2)Oc2ncccc2[C@@H]3N)nc(C(N)=O)c1-c1cccc(Cl)c1Cl` [Compound 125, (4M)-2-[(3S)-3-amino-3H-spiro[furo[2,3-b]pyridine-2,4′-piperidin]-1′-yl]-5-(2,3-dichlorophenyl)-6-methylpyrimidine-4-carboxamide], the IC50 in assay [1] is 0.53 µM. For the molecule `Cc1nc(N2CCC3(CC2)Oc2ncccc2[C@@H]3N)nc(C(N)=O)c1-c1cccc(Cl)c1Cl` [Compound 127, (4P)-2-[(3S)-3-amino-3H-spiro[furo[2,3-b]pyridine-2,4′-piperidin]-1′-yl]-5-(2,3-dichlorophenyl)-6-methylpyrimidine-4-carboxamide], the IC50 in assay [1] was more than 10 µM.
